Measurements taken from ChEMBL document CHEMBL1201862, “PubChem BioAssay data set” (2004).
The source made the active and inactive calls.

Experiments:
Insulin-degrading enzyme [1] = target: T1, Insulin-degrading enzyme (Homo sapiens, UniProt P14735); assay: cellular IDE activation of Abeta substrate cleavage – fluorescence polarization, HEK cells, dose response (AID 588439); type: functional, cell-based
Insulin-degrading enzyme [2] = target: T1, Insulin-degrading enzyme; assay: recombinant IDE activation, cell-free – biochemical, fluorescence polarization, counter-screen for IDE activator project, dose response (AID 588681)
Beta-lactamase [3] = target: Beta-lactamase (Pseudomonas aeruginosa, UniProt Q79MP6);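 further: biochemical dose-response test of metallo-beta-lactamase enzyme inhibition, read out by epi-absorbance; purified recombinant IMP-1 metallo-beta-lactamase with nitrocefin as substrate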
ORF 73 = ORF 73 (Human herpesvirus 8, UniProt O40947); assay: KSHV LANA DNA-binding disruption – biochemical, fluorescence polarization, cherry-picked samples, dose response (AID 504725); set-up: species or system Human gammaherpesvirus 8;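 further: fluorescence polarization of a labeled DNA duplex reporting LANA DNA binding; potency is for inhibitors that block LANA binding to the DNA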
Beta-lactamase [4] = target: Beta-lactamase (Salmonella choleraesuis (strain SC-B67), UniProt Q5J463)
Sequence of Beta-lactamase (Salmonella choleraesuis (strain SC-B67), UniProt Q5J463) (Q5J463 whole entry): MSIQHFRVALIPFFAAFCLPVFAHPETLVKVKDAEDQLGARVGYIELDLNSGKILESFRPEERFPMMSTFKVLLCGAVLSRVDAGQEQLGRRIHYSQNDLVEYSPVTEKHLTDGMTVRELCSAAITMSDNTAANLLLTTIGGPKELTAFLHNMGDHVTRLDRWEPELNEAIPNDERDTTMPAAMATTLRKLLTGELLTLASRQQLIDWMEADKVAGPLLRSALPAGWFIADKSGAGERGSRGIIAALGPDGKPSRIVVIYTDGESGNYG

HEK293 [5] = assay: optical interference in Abeta FP readout, dose response, artefact control for IDE activator project, biochemical, fluorescence polarization (AID 588442); type: functional, cell-based; conditions: Homo sapiens
HEK293 [6] = assay: membrane integrity loss in HEK cells – cell-based, fluorescence, cytotoxicity control for IDE activator project, dose response (AID 588440); type: functional; conditions: Homo sapiens;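 further: cytotoxicity by LDH release measuring loss of membrane integrity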
cells = type: functional, cell-based
[7] = Luminescence Cell-Based Dose HTS Response to Identify Inhibitors of 5'UTR Stem-Loop Driven Prion Protein mRNA Translation in H4-C Neuroglioblastoma Cells. [Related pubchem assays (depositor defined):AID1814, AID1827]; type: functional
BJ [8] = assay: BJ-TERT fibroblast viability loss – cell-based, RAS-independent, luminescence, dose response (AID 1933); type: functional; conditions: Homo sapiens
[9] = alpha-synuclein stem-loop translation blockers – luminescence, H4 neuroglioblastoma cells, dose confirmation, confirmation (AID 2454); type: functional, cell-based;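 further: H4 neuroglioblastoma cells carrying an alpha-synuclein 5'UTR luciferase reporter; potency for inhibition of the luciferase signal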
BJ [10] = assay: growth inhibition of engineered Ras-driven BJ cells – cell-based, alamar blue fluorescence, cherrypicked samples, dose response (AID 2631); type: functional; conditions: Homo sapiens;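 further: confirmatory dose-response assay in RAS-dependent BJ fibroblasts engineered with TERT, LT and ST, with cytotoxicity read by fluorescence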
[11] = alpha-synuclein stem-loop luciferase translation blockers – H4 neuroglioma cells, luminescence, confirmation (AID 1988); type: functional, cell-based
[12] = Luminescence Cell-Based Dose Response HTS to Identify Inhibitors of Luciferase Translation or Activity in H4-C Neuroglioblastoma Cells. [Related pubchem assays: 1813 (Primary HTS), 1827 (Project Summary)]; type: functional
[13] = Luminescence Cell-Based Dose Response HTS to Identify Inhibitors of 5'UTR Stem-Loop Driven Prion Protein mRNA Translation in H4 Neuroglioblastoma Cells. [Related pubchem assays: 1827 (Project Summary), 1813 (Primary HTS)]; type: functional
[14] = luciferase reporter signal reduction – luminescence, H4-C neuroglioblastoma cells, dose response (AID 2458); type: functional, cell-based;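 further: H4 neuroglioblastoma cells stably carrying a luciferase reporter gene fusion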
[15] = Luminescence Cell-Based Dose Response HTS to Identify Activators of 5'UTR Stem-Loop Driven Prion Protein mRNA Translation in H4-C Neuroglioblastoma Cells. [Related pubchem assays: 1829 (Project Summary), 1814 (Primary HTS)]; type: functional
BJ [16] = assay: cells; type: functional, cell-based; conditions: Homo sapiens
[17] = Luminescence Cell-Based Dose Confirmation HTS to Identify Inhibitors of 5'UTR Stem-Loop Driven Alpha-Synuclein mRNA Translation in H4 Neuroglioblastoma Cells. [Related pubchem assays: 1827 (Project Summary), 1813 (Primary HTS)]; type: functional
BJ [18] = assay: BJ-TERT-LT-ST fibroblast viability loss – cell-based, RAS-independent, luminescence, dose response (AID 1935); type: functional; conditions: Homo sapiens;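 further: BJ fibroblasts immortalized with TERT plus LT and ST oncogenes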
[19] = Luminescence Cell-Based Dose Response HTS to Identify Activators of Luciferase Translation or Activity in H4-C Neuroglioblastoma Cells. [Related pubchem assays: 1829 (Project Summary), 1814 (Primary HTS)]; type: functional
[20] = DRD fibroblast viability loss – cell-based, non-viral oncogenic, luminescence, dose response (AID 1934); type: functional; conditions: Homo sapiens
[21] = luciferase reporter signal suppression in cells – H4 neuroglioma cells, luminescence, dose response (AID 1990); type: functional, cell-based
[22] = target: T2, DNA dC->dU-editing enzyme APOBEC-3A (Homo sapiens, UniProt P31941); assay: SAR analysis of small molecule inhibitors of APOBEC3A DNA Deaminase via a fluorescence-based single-stranded DNA deaminase assay.; type: functional; conditions: read-out: IC50_Mean
T2 sequence (P31941 whole entry): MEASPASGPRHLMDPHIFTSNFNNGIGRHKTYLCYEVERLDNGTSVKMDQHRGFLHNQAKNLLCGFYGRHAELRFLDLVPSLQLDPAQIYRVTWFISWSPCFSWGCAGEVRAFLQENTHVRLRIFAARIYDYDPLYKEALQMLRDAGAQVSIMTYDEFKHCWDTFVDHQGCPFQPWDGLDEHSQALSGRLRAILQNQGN

[23] = target: T2, DNA dC->dU-editing enzyme APOBEC-3A; assay: A3A deaminase inhibition for selectivity – biochemical, dose response (AID 504722); type: functional
[24] = target: T3, DNA dC->dU-editing enzyme APOBEC-3G (Homo sapiens, UniProt Q9HC16); assay: inhibition of APOBEC3G ssDNA deamination – biochemical, fluorescence, single-stranded DNA substrate, SAR follow-up (AID 602136); type: functional; conditions: read-out: IC50_Mean
T3 sequence (Q9HC16 whole entry): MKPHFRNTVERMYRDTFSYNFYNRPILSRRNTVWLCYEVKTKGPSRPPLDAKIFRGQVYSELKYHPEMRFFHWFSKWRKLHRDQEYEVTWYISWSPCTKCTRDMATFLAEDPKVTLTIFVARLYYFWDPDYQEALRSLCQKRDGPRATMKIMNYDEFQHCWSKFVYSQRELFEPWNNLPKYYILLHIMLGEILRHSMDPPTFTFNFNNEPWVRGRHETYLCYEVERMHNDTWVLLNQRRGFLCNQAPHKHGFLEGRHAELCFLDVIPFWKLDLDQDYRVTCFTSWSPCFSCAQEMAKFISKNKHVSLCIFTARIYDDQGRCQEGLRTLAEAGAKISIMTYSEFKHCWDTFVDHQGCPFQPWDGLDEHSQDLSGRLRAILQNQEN

[25] = target: T2, DNA dC->dU-editing enzyme APOBEC-3A; assay: SAR analysis of small molecule inhibitors of APOBEC3A DNA Deaminase via a fluorescence-based single-stranded DNA deaminase assay - Set 2.; type: functional; conditions: read-out: IC50_Mean
Large T antigen = Large T antigen (Simian virus 40, UniProt P03070); type: functional, Betapolyomavirus macacae;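 further: Confirmatory-stage PubChem screen for compounds that inhibit SV40 T antigen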
[26] = target: T3, DNA dC->dU-editing enzyme APOBEC-3G; assay: Dose Response confirmation of small molecule APOBEC3G DNA Deaminase Inhibitors via a fluorescence-based single-stranded DNA deaminase assay. [Related pubchem assays (depositor defined):AID493012, AID493028]; type: functional
[27] = target: T3, DNA dC->dU-editing enzyme APOBEC-3G; assay: SAR analysis of small molecule inhibitors of APOBEC3G DNA Deaminase via a fluorescence-based single-stranded DNA deaminase assay - Set 2.; type: functional; conditions: read-out: IC50_Mean
INS1 [28] = assay: suppression of NO production in INS-1E cells – cell-based, Griess absorbance, dry powder, set 2, dose response (AID 488868); type: functional; conditions: Rattus norvegicus
[29] = suppression of NO production in INS-1E cells – cell-based, Griess absorbance, dry powder, set 3, dose response (AID 488870); type: functional; conditions: Rattus norvegicus
INS1 [30] = assay: suppression of NO production in INS-1E cells – cell-based, Griess absorbance, dry powder, dose response (AID 488866); type: functional; conditions: Rattus norvegicus
Aurora kinase B = Aurora kinase B (Homo sapiens, UniProt Q96GD4); type: functional
Sequence of Aurora kinase B (Q96GD4 whole entry): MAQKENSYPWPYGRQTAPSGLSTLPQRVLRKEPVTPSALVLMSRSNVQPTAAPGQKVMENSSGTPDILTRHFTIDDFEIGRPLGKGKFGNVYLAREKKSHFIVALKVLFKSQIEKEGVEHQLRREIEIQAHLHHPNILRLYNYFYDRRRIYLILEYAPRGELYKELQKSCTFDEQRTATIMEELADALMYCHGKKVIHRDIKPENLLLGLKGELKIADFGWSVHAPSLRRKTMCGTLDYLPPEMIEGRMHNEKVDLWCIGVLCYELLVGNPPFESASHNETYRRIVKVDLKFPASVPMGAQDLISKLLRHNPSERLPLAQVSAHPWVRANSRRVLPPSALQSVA

Aurora kinase A = Aurora kinase A (Homo sapiens, UniProt O14965); type: functional;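 further: value from the Navigating the Kinome kinase panel profiling, panel entry STK6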
[31] = target: Vascular endothelial growth factor receptor 2 (Homo sapiens, UniProt P35968); type: functional
Sequence of Vascular endothelial growth factor receptor 2 (P35968 whole entry): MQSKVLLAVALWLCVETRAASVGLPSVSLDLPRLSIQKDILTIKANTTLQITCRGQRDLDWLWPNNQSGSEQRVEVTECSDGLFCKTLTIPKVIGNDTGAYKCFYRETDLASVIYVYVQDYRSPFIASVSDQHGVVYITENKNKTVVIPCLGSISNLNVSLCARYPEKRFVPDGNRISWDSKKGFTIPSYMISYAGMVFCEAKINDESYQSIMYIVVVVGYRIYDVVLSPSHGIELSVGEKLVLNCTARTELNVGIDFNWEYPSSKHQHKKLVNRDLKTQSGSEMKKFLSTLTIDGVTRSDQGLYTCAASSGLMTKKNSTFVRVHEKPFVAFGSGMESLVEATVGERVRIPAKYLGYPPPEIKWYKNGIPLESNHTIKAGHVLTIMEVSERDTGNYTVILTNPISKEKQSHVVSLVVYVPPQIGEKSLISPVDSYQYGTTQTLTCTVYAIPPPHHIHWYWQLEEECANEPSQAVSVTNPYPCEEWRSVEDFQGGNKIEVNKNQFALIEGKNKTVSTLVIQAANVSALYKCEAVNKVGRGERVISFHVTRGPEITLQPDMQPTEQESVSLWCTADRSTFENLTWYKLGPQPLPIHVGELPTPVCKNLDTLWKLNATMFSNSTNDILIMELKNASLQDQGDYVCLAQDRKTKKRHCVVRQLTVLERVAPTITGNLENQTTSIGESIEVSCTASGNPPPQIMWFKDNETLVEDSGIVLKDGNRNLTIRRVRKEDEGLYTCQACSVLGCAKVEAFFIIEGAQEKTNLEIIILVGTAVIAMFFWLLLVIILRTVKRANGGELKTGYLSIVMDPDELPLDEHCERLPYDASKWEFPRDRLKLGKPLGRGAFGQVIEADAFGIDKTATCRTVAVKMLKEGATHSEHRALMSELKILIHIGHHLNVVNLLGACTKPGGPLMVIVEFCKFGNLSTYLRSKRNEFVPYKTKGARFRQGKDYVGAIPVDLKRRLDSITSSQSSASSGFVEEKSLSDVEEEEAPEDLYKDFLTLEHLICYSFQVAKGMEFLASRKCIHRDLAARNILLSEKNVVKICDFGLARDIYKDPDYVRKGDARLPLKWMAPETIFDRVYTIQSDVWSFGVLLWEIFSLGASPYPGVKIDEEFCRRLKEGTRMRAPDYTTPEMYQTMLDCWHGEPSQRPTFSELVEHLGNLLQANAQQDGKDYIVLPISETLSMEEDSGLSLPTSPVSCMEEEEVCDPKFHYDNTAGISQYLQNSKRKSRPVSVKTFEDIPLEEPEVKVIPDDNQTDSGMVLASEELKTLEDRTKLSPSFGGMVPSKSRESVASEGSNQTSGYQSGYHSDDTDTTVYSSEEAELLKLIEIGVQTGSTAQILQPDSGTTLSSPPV

[32] = Vero cell cytotoxicity, dose response, cytotoxicity control for M. tuberculosis growth inhibitor project, Vero cells, purified and synthesized compounds, set 4 (AID 504854); type: functional; conditions: Mycobacterium tuberculosis
[33] = target: Benomyl/methotrexate resistance protein (Candida albicans, UniProt P28873); assay: Candida albicans Mdr1 pump inhibition curves – singleplex, Cherry Pick1 hits, dose response (AID 588608); type: functional
[34] = target: Multidrug resistance protein CDR1 (Candida albicans, UniProt P43071); assay: inhibition of Nile Red efflux via Candida CDR1 – S. cerevisiae AD1-8u, singleplex, Cherry Pick1 hits, dose response (AID 588606); type: functional
Sequence of Multidrug resistance protein CDR1 (P43071 whole entry, looked up): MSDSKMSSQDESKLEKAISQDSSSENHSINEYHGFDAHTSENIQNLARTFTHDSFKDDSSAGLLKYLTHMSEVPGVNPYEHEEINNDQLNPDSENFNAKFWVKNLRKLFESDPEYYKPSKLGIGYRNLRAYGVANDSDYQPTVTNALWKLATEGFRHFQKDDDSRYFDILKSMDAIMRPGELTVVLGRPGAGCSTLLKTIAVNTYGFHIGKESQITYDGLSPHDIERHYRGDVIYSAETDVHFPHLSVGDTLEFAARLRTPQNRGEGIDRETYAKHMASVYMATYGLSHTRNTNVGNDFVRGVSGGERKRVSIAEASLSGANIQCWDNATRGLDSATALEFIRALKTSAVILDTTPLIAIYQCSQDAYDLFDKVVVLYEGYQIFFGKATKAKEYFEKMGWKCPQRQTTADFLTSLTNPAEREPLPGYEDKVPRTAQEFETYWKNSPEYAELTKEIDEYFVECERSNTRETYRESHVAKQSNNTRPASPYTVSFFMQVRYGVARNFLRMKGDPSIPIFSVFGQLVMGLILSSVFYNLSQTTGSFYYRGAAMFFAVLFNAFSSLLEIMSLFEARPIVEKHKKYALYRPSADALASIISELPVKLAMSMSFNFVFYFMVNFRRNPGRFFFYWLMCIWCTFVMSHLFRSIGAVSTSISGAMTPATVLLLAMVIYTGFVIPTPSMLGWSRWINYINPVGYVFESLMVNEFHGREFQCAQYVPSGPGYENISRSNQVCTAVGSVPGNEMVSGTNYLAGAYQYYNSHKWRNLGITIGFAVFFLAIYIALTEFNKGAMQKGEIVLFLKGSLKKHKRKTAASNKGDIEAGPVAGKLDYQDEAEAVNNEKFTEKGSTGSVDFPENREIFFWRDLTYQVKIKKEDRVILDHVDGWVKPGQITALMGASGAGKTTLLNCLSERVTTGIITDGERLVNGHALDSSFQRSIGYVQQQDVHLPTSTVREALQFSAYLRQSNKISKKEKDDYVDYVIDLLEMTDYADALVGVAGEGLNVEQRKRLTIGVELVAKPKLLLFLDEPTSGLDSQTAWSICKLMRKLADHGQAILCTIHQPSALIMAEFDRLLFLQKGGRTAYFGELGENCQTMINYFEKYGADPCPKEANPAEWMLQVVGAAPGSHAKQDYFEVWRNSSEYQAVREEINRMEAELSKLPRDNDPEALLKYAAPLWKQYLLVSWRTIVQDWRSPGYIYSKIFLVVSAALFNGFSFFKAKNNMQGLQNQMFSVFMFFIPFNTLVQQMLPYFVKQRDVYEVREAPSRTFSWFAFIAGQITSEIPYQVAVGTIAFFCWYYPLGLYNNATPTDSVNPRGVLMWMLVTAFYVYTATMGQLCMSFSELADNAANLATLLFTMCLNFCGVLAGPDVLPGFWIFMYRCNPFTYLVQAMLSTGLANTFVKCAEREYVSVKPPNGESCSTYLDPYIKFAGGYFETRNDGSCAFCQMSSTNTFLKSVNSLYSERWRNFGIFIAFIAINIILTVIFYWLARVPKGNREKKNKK

T1 sequence (P14735 whole entry): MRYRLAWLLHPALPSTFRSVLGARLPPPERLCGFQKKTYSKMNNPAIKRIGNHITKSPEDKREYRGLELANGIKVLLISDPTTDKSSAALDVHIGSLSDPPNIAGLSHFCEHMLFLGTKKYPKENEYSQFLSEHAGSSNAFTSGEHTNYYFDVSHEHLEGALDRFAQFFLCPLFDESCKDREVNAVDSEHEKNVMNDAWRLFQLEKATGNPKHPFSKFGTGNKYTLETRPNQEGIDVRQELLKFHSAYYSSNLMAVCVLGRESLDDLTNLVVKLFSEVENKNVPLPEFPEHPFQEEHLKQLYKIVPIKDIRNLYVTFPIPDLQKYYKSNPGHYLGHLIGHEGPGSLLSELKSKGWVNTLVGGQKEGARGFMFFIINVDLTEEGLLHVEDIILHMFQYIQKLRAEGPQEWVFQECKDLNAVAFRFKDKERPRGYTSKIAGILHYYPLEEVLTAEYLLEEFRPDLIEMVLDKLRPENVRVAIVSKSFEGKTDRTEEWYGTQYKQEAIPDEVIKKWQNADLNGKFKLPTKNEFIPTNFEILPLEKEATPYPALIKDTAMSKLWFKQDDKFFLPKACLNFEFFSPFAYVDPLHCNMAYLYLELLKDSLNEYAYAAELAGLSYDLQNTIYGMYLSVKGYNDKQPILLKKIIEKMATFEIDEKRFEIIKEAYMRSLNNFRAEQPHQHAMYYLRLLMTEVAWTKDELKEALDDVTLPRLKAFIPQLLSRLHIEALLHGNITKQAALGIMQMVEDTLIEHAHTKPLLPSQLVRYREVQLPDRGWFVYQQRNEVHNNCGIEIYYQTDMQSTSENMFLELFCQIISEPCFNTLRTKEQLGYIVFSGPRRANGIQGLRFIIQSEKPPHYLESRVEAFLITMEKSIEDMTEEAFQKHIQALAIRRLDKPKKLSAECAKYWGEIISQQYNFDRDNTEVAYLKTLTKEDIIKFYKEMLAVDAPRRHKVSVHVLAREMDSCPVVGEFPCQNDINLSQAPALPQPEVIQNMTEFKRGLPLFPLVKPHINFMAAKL

CCOc1ccc(/C=C2\CCCc3c2nc2ccccc2c3C(=O)O)cc1OC
EC50 (Insulin-degrading enzyme [1]): > 54.7 µM (inactive) | EC50 (Insulin-degrading enzyme [2]): > 54.7 µM (inactive) | IC50 (Beta-lactamase [3]): 53.1 µM (inactive) | AC50 (ORF 73): 0.908 µM (active) | IC50 (Beta-lactamase [4]): 10.9 µM (inactive) | EC50 (HEK293 [5]): 5.38 µM (active) | IC50 (HEK293 [6]): > 89.2 µM (inactive)

CCOC(=O)c1[nH]c(C)c(C(=O)N2CCc3ccccc32)c1C
EC50 (cells): 1.22 µM (active) | EC50 [7]: 2.33 µM (active) | EC50 (BJ [8]): 0.704 µM (inconclusive) | EC50 [9]: 1.3 µM (active) | EC50 (BJ [10]): 0.252 µM (active) | EC50 [11]: < 0.1 µM (active) | EC50 [12]: 1.01 µM (active) | EC50 [13]: 4.65 µM (active) | EC50 [14]: 1.07 µM (active) | EC50 [15]: 0.353 µM (inconclusive) | EC50 (BJ [16]): 10.8 µM (active) | EC50 [17]: 2.13 µM (active) | EC50 (BJ [18]): 0.42 µM (inconclusive) | EC50 [19]: 0.63 µM (inconclusive) | EC50 [20]: 0.656 µM (active) | EC50 [21]: 4.63 µM (inconclusive)

CCCCCn1c(=O)c2ccccc2n2c(S)nnc12
IC50 [22]: > 99 µM (inactive) | IC50 [23]: > 100 µM (inactive) | IC50 [24]: 1.2 µM (active) | IC50 [25]: > 99 µM (inactive) | IC50 (Large T antigen): 16.8 µM (active) | IC50 [26]: 1.47 µM (active) | IC50 [27]: 1.6 µM (active)

C[C@@H]1CN([C@@H](C)CO)C(=O)c2cccc(NC(=O)Nc3cccc4ccccc34)c2O[C@H]1CN(C)S(=O)(=O)c1cccc(F)c1
AC50 (INS1 [28]): 29.6 µM (active) | AC50 [29]: 22.9 µM (active) | AC50 (INS1 [30]): 32.1 µM (active)

COc1cc(-c2ccc3c(c2)Nc2cc(OCCCCO)c(OC)cc2NC3=O)ccc1O
Ki (Aurora kinase B): 1.58 µM (active) | Ki (Aurora kinase A): 1.26 µM (active) | Ki [31]: 3.98 µM (active)

CCC(Sc1nc2ccccc2c(=O)[nH]1)C(=O)Nc1cccc(OC)c1 (centres undefined)
CC50 [32]: > 100 µM (active)

Cc1ccc(S(=O)(=O)N2CCOCC2)cc1NC(=O)COC(=O)CNC(=O)c1ccccc1
EC50 [33]: 0.065 µM (active) | EC50 [34]: 0.018 µM (active)
